Experiments:
[1] = system: ABUTH (Abutilon theophrasti); assay: Postemergence herbicidal evaluation; format: in vivo, Medic.; settings: for ABUTH herbicidal rating: postemergence
Summary of the method: (§1)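 Seedlings grown about two weeks in flats, sprayed, then kept under standard greenhouse care. Rated visually 4–5 weeks after treatment on a 0–9 scale (stand, vigour, malformation, size, chlorosis, overall appearance) relative to untreated control; repeat tests averaged.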

[2] = system: AMBEL (Ambrosia artemisifolia); assay: Postemergence herbicidal evaluation; format: in vivo, L.; settings: for AMBEL herbicidal rating: postemergence
Summary of the method: as §1

[3] = system: CASOB (Cassia obtusifolia); assay: Postemergence herbicidal evaluation; format: in vivo, L.; settings: for CASOB herbicidal rating: postemergence
Summary of the method: as §1

[4] = system: CHEAL (Chenopodium album); assay: Postemergence herbicidal evaluation; format: in vivo, L.; settings: for CHEAL herbicidal rating: postemergence
Summary of the method: as §1

[5] = system: IPOHE (Ipomoea hederacea); assay: Postemergence herbicidal evaluation; format: in vivo, (L.) Jacq.; settings: for IPOHE herbicidal rating: postemergence
Summary of the method: as §1

[6] = system: GLXMAW (Soybean, Williams); assay: Postemergence herbicidal evaluation; format: in vivo, Glycine max, (L.) Merr. cv Williams; settings: for GLXMAW herbicidal rating: postemergence
Summary of the method: as §1

ORYSAT (Rice, Tebonnet) [7] = assay: Postemergence herbicidal evaluation; format: in vivo, Oryza sativa, (L.) Tebonnet; settings: for ORYSAT herbicidal rating: postemergence
Summary of the method: as §1

[8] = system: ABUTH (Abutilon theophrasti); assay: Preemergence herbicidal evaluation; format: in vivo, Medic.; settings: rated 4-5 weeks after treatment
[9] = system: AMBEL (Ambrosia artemisifolia); assay: Preemergence herbicidal evaluation; format: in vivo, L.; settings: rated 4-5 weeks after treatment
Summary of the method: (§2)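 Applied before emergence as an aqueous acetone spray over seeded soil. Read-out: 0–9 visual rating covering plant stand, vigor, size, chlorosis, malformation and overall appearance compared with control, taken 4–5 weeks after spraying.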

[10] = system: CASOB (Cassia obtusifolia); assay: Preemergence herbicidal evaluation; format: in vivo, L.; settings: rated 4-5 weeks after treatment
Summary of the method: as §2

[11] = system: CHEAL (Chenopodium album); assay: Preemergence herbicidal evaluation; format: in vivo, L.; settings: rated 4-5 weeks after treatment
Summary of the method: as §2

[12] = system: IPOHE (Ipomoea hederacea); assay: Preemergence herbicidal evaluation; format: in vivo, (L.) Jacq.; settings: rated 4-5 weeks after treatment
[13] = system: ECHCG (Echinochloa crus-galli); assay: Preemergence herbicidal evaluation; format: in vivo, (L.) Beau; settings: rated 4-5 weeks after treatment
Summary of the method: as §2

SETVI (Setaria viridis) = assay: Preemergence herbicidal evaluation; format: in vivo, (L.) Beau; settings: rated 4-5 weeks after treatment
Summary of the method: as §2

[14] = system: GLXMAW (Soybean, Williams); assay: Preemergence herbicidal evaluation; format: in vivo, Glycine max, (L.) Merr. cv Williams; settings: rated 4-5 weeks after treatment
[15] = system: TRZAWR (Wheat, Winter, cv Riband); assay: Preemergence herbicidal evaluation; format: in vivo, Triticum aestivum; settings: rated 4-5 weeks after treatment
Summary of the method: as §2

ZEAMX (Corn, Field) = assay: Preemergence herbicidal evaluation; format: in vivo, Zea mays, L.; settings: rated 4-5 weeks after treatment
CYPIR (Cyperus iria) = assay: Flooded paddy, preemergence weed control; format: in vivo; settings: rated 3-4 weeks after treatment, 0-9 rating scale
Summary of the method: (§3)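 Plants were established from seed or propagating organs in flooded silt loam, with the water surface held 1.5 to 3 cm above the soil for the entire experiment. Injury was assessed visually against a control and given a 0-9 score.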

[16] = system: MOOVA (Monochoria vaginalis); assay: Flooded paddy, preemergence weed control; format: in vivo, Presl.; settings: rated 3-4 weeks after treatment, 0-9 rating scale
Summary of the method: as §3

ORYSAT (Rice, Tebonnet) [17] = assay: Flooded paddy, post-transplant rice tolerance; format: in vivo, Oryza sativa, (L.) Tebonnet; settings: flooded paddy, post-transplant rice, rated 3-4 weeks after treatment, 0-9 rating scale
Summary of the method: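 Visual 0–9 injury rating against a control, covering stand, vigor, malformation, size, chlorosis and overall appearance. Treatment was post-transplant onto flooded containers (water 1.5–3 cm deep, silt loam) holding two ten-day-old cv. Tebonnet seedlings, maintained on greenhouse benches.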

Compound: Cn1c(C(F)(F)F)cc(=O)n(-c2ccc3snc(C4OCCCS4)c3c2)c1=O (stereo not drawn) [Compound 34, 1-methyl-3-[3-(1,3-oxathian-2-yl)-1,2-benzisothiazol-5-yl]-6-(trifluoromethyl)uracil]
- ABUTH herbicidal rating ([1]; rate 0.0320 kg/ha): 9.0
- ABUTH herbicidal rating ([1]; rate 0.0620 kg/ha): 9.0
- Postemergence herbicidal rating, ABUTH ([1]; rate 0.0320 kg/ha): 9.0
- Postemergence herbicidal rating, ABUTH ([1]; rate 0.0620 kg/ha): 9.0
- AMBEL herbicidal rating ([2]; rate 0.0320 kg/ha): 7.0
- AMBEL herbicidal rating ([2]; rate 0.0620 kg/ha): 9.0
- Postemergence herbicidal rating, AMBEL ([2]; rate 0.0320 kg/ha): 9.0
- Postemergence herbicidal rating, AMBEL ([2]; rate 0.0620 kg/ha): 9.0
- CASOB herbicidal rating ([3]; rate 0.0320 kg/ha): 6.0
- CASOB herbicidal rating ([3]; rate 0.0620 kg/ha): 6.0
- Postemergence herbicidal rating, CASOB ([3]; rate 0.0320 kg/ha): 9.0
- Postemergence herbicidal rating, CASOB ([3]; rate 0.0620 kg/ha): 9.0
- CHEAL herbicidal rating ([4]; rate 0.0320 kg/ha): 7.0
- CHEAL herbicidal rating ([4]; rate 0.0620 kg/ha): 9.0
- Postemergence herbicidal rating, CHEAL ([4]; rate 0.0320 kg/ha): 7.0
- Postemergence herbicidal rating, CHEAL ([4]; rate 0.0620 kg/ha): 9.0
- IPOHE herbicidal rating ([5]; rate 0.0320 kg/ha): 9.0
- IPOHE herbicidal rating ([5]; rate 0.0620 kg/ha): 9.0
- Postemergence herbicidal rating, IPOHE ([5]; rate 0.0320 kg/ha): 9.0
- Postemergence herbicidal rating, IPOHE ([5]; rate 0.0620 kg/ha): 9.0
- GLXMAW herbicidal rating ([6]; rate 0.0320 kg/ha): 6.5
- GLXMAW herbicidal rating ([6]; rate 0.0620 kg/ha): 6.5
- Postemergence herbicidal rating, GLXMAW ([6]; rate 0.0320 kg/ha): 9.0
- Postemergence herbicidal rating, GLXMAW ([6]; rate 0.0620 kg/ha): 9.0
- ORYSAT herbicidal rating (ORYSAT (Rice, Tebonnet) [7]; rate 0.0320 kg/ha): 5.5
- ORYSAT herbicidal rating (ORYSAT (Rice, Tebonnet) [7]; rate 0.0620 kg/ha): 6.5
- Postemergence herbicidal rating, ORYSAT (ORYSAT (Rice, Tebonnet) [7]; rate 0.0320 kg/ha): 7.0
- Postemergence herbicidal rating, ORYSAT (ORYSAT (Rice, Tebonnet) [7]; rate 0.0620 kg/ha): 7.0
- ABUTH preemergence herbicidal rating ([8]; Rate 0.0620 kg/ha): 9.0
- Preemergence herbicidal rating ABUTH ([8]; Rate 0.0620 kg/ha): 9.0
- ABUTH preemergence herbicidal rating ([8]; Rate 0.1250 kg/ha): 9.0
- Preemergence herbicidal rating ABUTH ([8]; Rate 0.1250 kg/ha): 9.0
- ABUTH preemergence herbicidal rating ([8]; Rate 0.2500 kg/ha): 9.0
- Preemergence herbicidal rating ABUTH ([8]; Rate 0.2500 kg/ha): 9.0
- AMBEL preemergence herbicidal rating ([9]; Rate 0.0620 kg/ha): 9.0
- Preemergence herbicidal rating AMBEL ([9]; Rate 0.0620 kg/ha): 9.0
- AMBEL preemergence herbicidal rating ([9]; Rate 0.1250 kg/ha): 9.0
- Preemergence herbicidal rating AMBEL ([9]; Rate 0.1250 kg/ha): 9.0
- AMBEL preemergence herbicidal rating ([9]; Rate 0.2500 kg/ha): 9.0
- Preemergence herbicidal rating AMBEL ([9]; Rate 0.2500 kg/ha): 9.0
- CASOB preemergence herbicidal rating ([10]; Rate 0.0620 kg/ha): 5.0
- Preemergence herbicidal rating CASOB ([10]; Rate 0.0620 kg/ha): 2.5
- CASOB preemergence herbicidal rating ([10]; Rate 0.1250 kg/ha): 9.0
- Preemergence herbicidal rating CASOB ([10]; Rate 0.1250 kg/ha): 3.0
- CASOB preemergence herbicidal rating ([10]; Rate 0.2500 kg/ha): 9.0
- Preemergence herbicidal rating CASOB ([10]; Rate 0.2500 kg/ha): 4.5
- CHEAL preemergence herbicidal rating ([11]; Rate 0.0620 kg/ha): 9.0
- Preemergence herbicidal rating CHEAL ([11]; Rate 0.0620 kg/ha): 9.0
- CHEAL preemergence herbicidal rating ([11]; Rate 0.1250 kg/ha): 9.0
- Preemergence herbicidal rating CHEAL ([11]; Rate 0.1250 kg/ha): 9.0
- CHEAL preemergence herbicidal rating ([11]; Rate 0.2500 kg/ha): 9.0
- Preemergence herbicidal rating CHEAL ([11]; Rate 0.2500 kg/ha): 9.0
- IPOHE preemergence herbicidal rating ([12]; Rate 0.0620 kg/ha): 9.0
- Preemergence herbicidal rating IPOHE ([12]; Rate 0.0620 kg/ha): 6.0
- IPOHE preemergence herbicidal rating ([12]; Rate 0.1250 kg/ha): 9.0
- Preemergence herbicidal rating IPOHE ([12]; Rate 0.1250 kg/ha): 6.0
- IPOHE preemergence herbicidal rating ([12]; Rate 0.2500 kg/ha): 9.0
- Preemergence herbicidal rating IPOHE ([12]; Rate 0.2500 kg/ha): 9.0
- ECHCG preemergence herbicidal rating ([13]; Rate 0.0620 kg/ha): 7.0
- Preemergence herbicidal rating ECHCG ([13]; Rate 0.0620 kg/ha): 9.0
- ECHCG preemergence herbicidal rating ([13]; Rate 0.1250 kg/ha): 8.0
- Preemergence herbicidal rating ECHCG ([13]; Rate 0.1250 kg/ha): 9.0
- ECHCG preemergence herbicidal rating ([13]; Rate 0.2500 kg/ha): 9.0
- Preemergence herbicidal rating ECHCG ([13]; Rate 0.2500 kg/ha): 9.0
- SETVI preemergence herbicidal rating (SETVI (Setaria viridis); Rate 0.0620 kg/ha): 9.0
- Preemergence herbicidal rating SETVI (SETVI (Setaria viridis); Rate 0.0620 kg/ha): 9.0
- SETVI preemergence herbicidal rating (SETVI (Setaria viridis); Rate 0.1250 kg/ha): 9.0
- Preemergence herbicidal rating SETVI (SETVI (Setaria viridis); Rate 0.1250 kg/ha): 9.0
- SETVI preemergence herbicidal rating (SETVI (Setaria viridis); Rate 0.2500 kg/ha): 9.0
- Preemergence herbicidal rating SETVI (SETVI (Setaria viridis); Rate 0.2500 kg/ha): 9.0
- GLXMAW preemergence herbicidal rating ([14]; Rate 0.0620 kg/ha): 7.5
- Preemergence herbicidal rating GLXMAW ([14]; Rate 0.0620 kg/ha): 6.5
- GLXMAW preemergence herbicidal rating ([14]; Rate 0.1250 kg/ha): 9.0
- Preemergence herbicidal rating GLXMAW ([14]; Rate 0.1250 kg/ha): 7.0
- GLXMAW preemergence herbicidal rating ([14]; Rate 0.2500 kg/ha): 9.0
- Preemergence herbicidal rating GLXMAW ([14]; Rate 0.2500 kg/ha): 7.0
- TRZAWR preemergence herbicidal rating ([15]; Rate 0.0620 kg/ha): 5.0
- Preemergence herbicidal rating TRZAWR ([15]; Rate 0.0620 kg/ha): 5.0
- TRZAWR preemergence herbicidal rating ([15]; Rate 0.1250 kg/ha): 7.0
- Preemergence herbicidal rating TRZAWR ([15]; Rate 0.1250 kg/ha): 5.0
- TRZAWR preemergence herbicidal rating ([15]; Rate 0.2500 kg/ha): 8.0
- Preemergence herbicidal rating TRZAWR ([15]; Rate 0.2500 kg/ha): 7.0
- ZEAMX preemergence herbicidal rating (ZEAMX (Corn, Field); Rate 0.0620 kg/ha): 5.0
- Preemergence herbicidal rating ZEAMX (ZEAMX (Corn, Field); Rate 0.0620 kg/ha): 4.5
- ZEAMX preemergence herbicidal rating (ZEAMX (Corn, Field); Rate 0.1250 kg/ha): 7.0
- Preemergence herbicidal rating ZEAMX (ZEAMX (Corn, Field); Rate 0.1250 kg/ha): 6.0
- ZEAMX preemergence herbicidal rating (ZEAMX (Corn, Field); Rate 0.2500 kg/ha): 9.0
- Preemergence herbicidal rating ZEAMX (ZEAMX (Corn, Field); Rate 0.2500 kg/ha): 6.5
- herbicidal rating, CYPIR (CYPIR (Cyperus iria); rate 0.0320 kg/ha): 9.0
- herbicidal rating, CYPIR (CYPIR (Cyperus iria); rate 0.0620 kg/ha): 7.0
- herbicidal rating, MOOVA ([16]; rate 0.0320 kg/ha): 9.0
- herbicidal rating, MOOVA ([16]; rate 0.0620 kg/ha): 9.0
- herbicidal rating, MOOVA ([16]; rate 0.1250 kg/ha): 9.0
- herbicidal rating, ORYSAT (rice tolerance) (ORYSAT (Rice, Tebonnet) [17]; rate 0.0080 kg/ha): 3.0
- herbicidal rating, ORYSAT (rice tolerance) (ORYSAT (Rice, Tebonnet) [17]; rate 0.0080 kg/ha, listed as 81): 5.0
- herbicidal rating, ORYSAT (rice tolerance) (ORYSAT (Rice, Tebonnet) [17]; rate 0.0320 kg/ha): 6.7
- herbicidal rating, ORYSAT (rice tolerance) (ORYSAT (Rice, Tebonnet) [17]; rate 0.0620 kg/ha): 8.5
- herbicidal rating, ORYSAT (rice tolerance) (ORYSAT (Rice, Tebonnet) [17]; rate 0.1250 kg/ha): 9.0
- herbicidal rating, ORYSAT (rice tolerance) (ORYSAT (Rice, Tebonnet) [17]; rate 0.1250 kg/ha, listed as 81): 8.0

From patent US6706663B2, “Herbicidal 3-heterocyclic substituted benzisothiazole and benzisoxazole compounds” (Wyeth, priority 2000, dated 2004)
